Reference: EP1356819A1, “Use of proteasome/ubiquitination inhibitors and/or MMP inhibitors alone or in combination with a growth hormone for treating /preventing catabolic conditions” (Universitair Medisch Centrum Utrecht, priority 2002, dated 2003)
Like-named read-outs stand apart in the source and are kept apart here. Where a SMILES comes first, the peptide text is derived from it. The star is where a group is joined. Cbz = O=C(OCc1ccccc1)*

Columns and labels:
[1] = test system: GH binding protein (GHBP); test: Release of GH binding protein into the growth medium, Western blotting with Mab5 antibody; assay type: cell-based, rabbit; conditions: 1 µM; growth medium after 150 min at 30°C (Fig. 3)
Method: Cell lines and plasmids. Chinese hamster lung cells, ts20, bearing a thermolabile ubiquitin-activating enzyme E1, and E36 control cells were stably transfected with a pCB6 construct containing the full length rabbit GHR cDNA sequence. The newly established cell lines were grown at 30°C in MEMα supplemented with 10% FCS, 4.5 g/l glucose, 100 U/ml penicillin, 100 µg/ml streptomycin and 0.45 mg/ml geneticin (van Kerkhof et al., 2002). Sixteen hours before the start of the experiment, 10 mM butyrate was added to increase the expression of the GHR (van Kerkhof et al., 2002).
Cell lysis, immunoprecipitation, and western blotting. […] Cell lysates were subjected to SDS-polyacrylamide gel electrophoresis using a precast ready gel system (BioRad, Veenendaal, The Netherlands) and transferred to polyvinylidenedifluoride (PVDF) paper. The blots were immunostained using the polyclonal GHR antibodies anti-T or anti-B or the monoclonal antibody mAb5 followed by peroxidase conjugated protein A or rabbit anti-mouse IgG (Pierce Chemical Co.) as described previously (van Kerkhof et al. 2002), and detected by enhanced chemiluminescence (Roche Molecular Biochemicals).
• Fig. 1. […] Quantification of receptors at the cell surface. […] The number GHRs were calculated and expressed as a percentage of untreated cells. • Fig. 3. […]

GHR = test: Western blotting of GHR species (mature and precursor) in cell lysates after drug treatment; assay type: cell-based, rabbit
Method: Cell lines and plasmids. Chinese hamster lung cells, ts20, bearing a thermolabile ubiquitin-activating enzyme E1, and E36 control cells were stably transfected with a pCB6 construct containing the full length rabbit GHR cDNA sequence.
Antibodies and materials. […] Inhibitors were dissolved in dimethylsulfoxide (DMSO).
Cell lysis, immunoprecipitation, and western blotting. Cells (in 6-cm dishes) were lysed on ice in 1.0 mL of lysis buffer containing 1% Triton X-100, 1 mM EDTA in PBS, with 50 mM NaF, 1 mM Na3VO4, 10 µg/ml aprotinin, 10 µg/ml leupeptin, and 1 mM PMSF. Cell lysates were subjected to SDS-polyacrylamide gel electrophoresis using a precast ready gel system (BioRad, Veenendaal, The Netherlands) and transferred to polyvinylidenedifluoride (PVDF) paper.
• Fig. 1. Effect of various drugs on GHR species. Cells were treated for 3 h as follows: lane 1, vehicle; lane 2, MG132 (10 µM); lane 3, Tapi-I (10 µM); lane 4, MG132 (10 µM) and Tapi-I (10 µM); lane 5, cycloheximide (0.1 mM); m, mature; p, precursor GHR. […] Quantification of receptors at the cell surface. […] The number GHRs were calculated and expressed as a percentage of untreated cells. • Fig. 3. Effect of metalloprotease inhibitors on the release of GH binding protein.

[2] = Chinese hamster lung cells transfected with rabbit GHR, treated for 3 h, MG132 10 µM, Tapi-I 10 µM, cycloheximide 0.1 mM, compared with vehicle control (Fig. 1)

SMILES | inhibition of shedding of GHBP [1] | amount of precursor GHR (GHR; [2]) | steady state amount of mature GHR (GHR; [2]) | amount of precursor GHR (GHR) | steady state amount of mature GHR (GHR)
CNC(=O)[C@H](Cc1c[nH]c2ccccc12)NC(=O)[C@@H](CC(=O)NO)CC(C)C [GM6001] | almost completely inhibited |  |  |  | 
CC(C)C[C@@H](C=O)NC(=O)[C@H](CC(C)C)NC(=O)[C@H](CC(C)C)NC(=O)OCc1ccccc1 [MG132, carbobenzoxy-L-leucyl-L-leucyl-L-leucinal] (Cbz-Leu-Leu-Leu-aldehyde) |  | remained constant | decreased |  | 
CC(C)C[C@H](CC(=O)NO)C(=O)N[C@@H](Cc1ccc2ccccc2c1)C(=O)N[C@@H](C)C(=O)NCCN [Tapi-I] | almost completely inhibited | unchanged | slight increase |  | 
C[C@@H]1C[C@@H]([C@H](O)CC2CC(=O)NC(=O)C2)C(=O)[C@@H](C)C1 [cycloheximide] |  |  |  | virtually disappeared | virtually disappeared
